Reference: US6949543B2, “Amide derivative” (Yamanouchi Pharmaceutical Co., Ltd., priority 2000, dated 2005)
pEC50: −log10 of the molar value.

Tested on: VZV (strain CaQu)
Test: Anti-VZV activity assay (plaque reduction in HEF cells)
Assay type: cell-based, varicella zoster virus
Settings: Human alphaherpesvirus 3, 3 to 4 days culture, plaque count, read-out: EC50 (concentration to inhibit 50% of the plaques)
Protocol: This assay was carried out in accordance with the method described by Shigeta S. (The Journal of Infectious Diseases, 147, 3, 576-584 (1983). Illustratively, HEF cells were seeded a 96 well microtiter plate at 10,000 cells per well using a propagation medium and cultured at 37° C. for 4 days in an atmosphere of 5% CO2 until monolayers were formed. After washing the cells with a maintaining medium, the cells were inoculated with 100 μl/well of VZV (strain CaQu) which had been diluted to 20 to 30 pfu/100 μl with the maintaining medium. The plate was centrifuged at 2,000 rpm for 20 minutes at room temperature and then incubated at 37° C. for 3 hours in an atmosphere of 5% CO2 to infect with VZV. After washing three times with 100 μl/well of the maintaining medium, 100 μl of each test drug diluted to an appropriate concentration with the maintaining medium was added to each well. After culturing the cells at 37° C. for 3 to 4 days in an atmosphere of 5% CO2, the cells were fixed with 100 μl/well of 10% formalin/PBS for 2 to 3 hours. After discarding the fixing solution and culture supernatant and subsequently washing the plate with water, a staining solution (0.025% Crystal Violet) was added in 50 μl/well to carry out 2 to 3 minutes for staining, and then the plate was washed with water and dried at 37° C. The HEF cells infected with VZV cause cell death, and plaques comprising dead cells are formed in the monolayer HEF cells. The number of plaques was counted under a microscope, and EC50 value of the test drug was calculated as a concentration to inhibit 50% of the plaques.

Structure (SMILES)	pEC50
Nc1nc2c(ncn2COCCO)c(=O)[nH]1 [ACV, Acyclovir, reference compound]	5.37
Nc1nc(-c2ccc(NC(=O)CN(C(=O)c3ccncc3)c3ccc4scnc4c3)cc2)cs1 [Example 108]	7.60
Nc1nc(-c2ccc(NC(=O)CN(C(=O)C3CCOCC3)c3ccc4scnc4c3)cc2)cs1 [Example 110]	7.31
Nc1nc(-c2ccc(NC(=O)CN(C(=O)C3CCSCC3)c3ccc4scnc4c3)cc2)cs1 [Example 111]	7.59
Nc1nc(-c2ccc(NC(=O)CN(C(=O)C3CCSc4ccccc43)c3ccc4scnc4c3)cc2)cs1 (stereo not shown) [Example 113]	7.40
Nc1nc(-c2ccc(NC(=O)CN(C(=O)C3CCCCC3)c3ccc4ncsc4c3)cc2)cs1 [Example 114]	7.15
Nc1nc(-c2ccc(NC(=O)CN(C(=O)C3CC=C(F)CC3)c3ccc4scnc4c3)cc2)cs1 (stereo not shown) [Example 115]	7.55
Nc1nc(-c2ccc(NC(=O)CN(C(=O)C3CCC(F)(F)CC3)c3ccc4scnc4c3)cc2)cs1 [Example 116]	7.48
Nc1nc(-c2ccc(NC(=O)CN(C(=O)c3ccc(F)nc3)c3ccc4scnc4c3)cc2)cs1 [Example 117]	7.19
Nc1nc(-c2ccc(NC(=O)CN(C(=O)c3ccncn3)c3ccc4scnc4c3)cc2)cs1 [Example 118]	7.23
